Reference: patent US20090305993A1, “METHODS AND COMPOSITION FOR THE TREATMENT OF GASTROINTESTINAL DISORDERS” (IRONWOOD PHARMACEUTICALS, INC., priority 2006, published 2009)
Where a SMILES comes first, the peptide text is derived from it. Bridges are numbered along the chain shown (N, C = ends).

Key:
Male Wistar rats = experiment: TNBS visceral hypersensitivity rat model (colorectal distension, EMG); assay type: in vivo; details: 0.3 μg/kg and 3 μg/kg, after TNBS, FIG. 7a
Description: Male Wistar rats (220-250 g) were premedicated with 0.5 mg/kg of acepromazine injected intraperitoneally (IP) and anesthetized by intramuscular administration of 100 mg/kg of ketamine. Pairs of nichrome wire electrodes (60 cm in length and 80 μm in diameter) were implanted in the striated muscle of the abdomen, 2 cm laterally from the white line. The free ends of electrodes were exteriorized on the back of the neck and protected by a plastic tube attached to the skin. Electromyographic (EMG) recordings were started 5 days after surgery. Electrical activity of abdominal striated muscle was recorded with an electroencephalograph machine (Mini VIII, Alvar, Paris, France) using a short time constant (0.03 sec.) to remove low-frequency signals (<3 Hz).
Ten days post surgical implantation, trinitrobenzenesulphonic acid (TNBS) was administered to induce rectal inflammation. TNBS (80 mg kg^−1 in 0.3 ml 50% ethanol) was administered intrarectally through a silicone rubber catheter introduced at 3 cm from the anus under light diethyl-ether anesthesia, as described (Morteau et al. 1994 Dig Dis Sci 39:1239). […] Evaluation of rectal sensitivity, as measured by EMG, was performed before (1-2 days) and 3 days following rectal instillation of TNBS.
The number of spike bursts that corresponds to abdominal contractions was determined per 5 min periods. […]

[1] = bioavailability study in mice, LCMS detection; assay type: in vivo; details: CD1, mouse, serum, IV and oral, FIG. 10b, read-out: bioavailable
Description: A similar bioavailability study was performed in which LCMS rather than ELISA was used to detect SEQ ID NO:3. Initially, serum samples were extracted from the whole blood of exposed and control mice, then injected directly ([…]) onto an in-line solid phase extraction (SPE) column (Waters Oasis HLB 25 μm column, 2.0×15 mm direct connect) without further processing. The sample on the SPE column was washed with a 5% methanol, 95% dH2O solution (2.1 mL/min, 1.0 minute), then loaded onto an analytical column using a valve switch that places the SPE column in an inverted flow path onto the analytical column (Waters Xterra MS C8 5 μm IS column, 2.1×20 mm). The sample was eluted from the analytical column with a reverse phase gradient (Mobile Phase A: 10 mM ammonium hydroxide in dH2O, Mobile Phase B: 10 mM ammonium hydroxide in 80% acetonitrile and 20% methanol; 20% B for the first 3 minutes then ramping to 95% B over 4 min. and holding for 2 min., all at a flow rate of 0.4 mL/min.). At 9.1 minutes, the gradient returns to the initial conditions of 20% B for 1 min. SEQ ID NO:3 eluted from the analytical column at 1.45 minutes, and was detected by triple-quadrapole mass spectrometry (MRM, 764 (+2 charge state)>182 (+1 charge state) Da; cone voltage=30V; collision=20 eV; parent resolution=2 Da at base peak; daughter resolution=2 Da at base peak). […]

[2] = stability in simulated gastric fluid (SGF) pH 1; assay type: in vitro ADME; details: pH 1, 37° C., up to 3 h
Description: All samples were analyzed by LC/MS
The reference control sample was diluted 10-fold (1000 μL volume) in distilled water for a final concentration of 10 μM and chilled on ice. At each time point, samples were diluted 10-fold (1000 μL volume) in distilled water for an expected concentration of 10 μM, and chilled on ice, until analysis.

healthy subjects = experiment: seven-day oral dosing study in humans, bowel habits; assay type: in vivo, human
Description: Seven daily doses of 30, 100, 300, or 1000 μg of chemically synthesized SEQ ID NO:3 were given to 48 healthy subjects. SEQ ID NO:3 or placebo (vehicle) was administered orally in 5.0 mL 50 mM phosphate buffer (pH 6.0) plus 3×20 mL water rinses and 175 mL water after at least a 10-hour fast. In each dosing group, 8 subjects were randomized to receive SEQ ID NO:3 and 4 subjects were randomized to receive placebo. […] The Mean Ease of Passage (FIG. 15d) of stools was tested for subjects treated with 30-1000 μg SEQ ID NO:3.

Female CD rats [3] = experiment: rat model of postoperative ileus; assay type: in vivo; details: oral 10 μg/kg, after abdominal surgery, FIG. 16
Description: Female CD rats were used to test the effect of SEQ ID NO:3 on delayed transit induced by abdominal surgery and manual manipulation of the small intestine. Groups of at least nine rats underwent abdominal surgery under isoflurane anesthesia. Surgery consisted of laparotomy and 5 minutes of gentle manual intestinal massage. Following recovery from anesthesia, rats were dosed orally with either 10 μg/kg SEQ ID NO:3 or vehicle (20 mM Tris) in a volume of 300 μl. 1 hour after dosing, intestinal transit rate was measured. Animals were again dosed with 300 μl of the test article followed immediately by 500 μl of a charcoal meal (10% charcoal, 10% gum arabic in water). To calculate the distance of the small intestine traveled by the charcoal front, after 20 minutes, the total length of the intestine as well as the distance traveled from the stomach to the charcoal front were measured for each animal. Animals dosed with 10 μg/kg SEQ ID NO:3 experienced an increase in transit following abdominal surgery compared to animals dosed with vehicle alone (FIG. 16). Charcoal transit in SEQ ID NO:3 dosed animals was measured at 37.3+3.0% (mean+SEM) of the small intestine compared with vehicle at 24.7+1.4% (mean+SEM) of the small intestine.

Female CD rats [4] = experiment: ligated loop model in rats (cGMP, secretion); assay type: in vivo; details: center loop of the rat small intestine, 5 μg, FIG. 17b
Excerpt: In the case of the rat, however four loops of intestine were surgically ligated. The first three loops were distributed equally in the small intestine and the fourth loop was located in colon. […] SEQ ID NO:3 increases cGMP levels and secretion in the center loop of the rat small intestine as shown in FIG. 17b (n=9-10 animal per group for secretion assays; n=7-8 animals for cGMP assays).

## C[C@@H]1NC(=O)[C@@H]2CCCN2C(=O)[C@H](CC(N)=O)NC(=O)[C@@H]2CSSC[C@H](N)C(=O)N[C@H]3CSSC[C@H](NC1=O)C(=O)N[C@@H]([C@@H](C)O)C(=O)NCC(=O)N[C@H](C(=O)N[C@@H](Cc1ccc(O)cc1)C(=O)O)CSSC[C@H](NC(=O)[C@H](Cc1ccc(O)cc1)NC(=O)[C@H](CCC(=O)O)NC3=O)C(=O)N2 [SEQ ID NO:3] (H-CCEYCCNPACTGCY-OH; disulfide 1-6, 2-10, 5-13; N-terminus and C-terminus assumed)
Male Wistar rats
  abdominal response to colorectal distension: Significant decreases in abdominal response
[1]
  bioavailability: < 0.11%
[2]
  Cleavage of SEQ ID NO: 3 by proteolytic substance: not detectable
Healthy subjects; 1000 μg dose group, FIG. 15e
  Mean Ease of Passage of stools, baseline versus treatment, placebo versus SEQ ID NO:3: greatest difference
Healthy subjects; seven daily oral doses 30-1000 μg, higher doses, FIG. 15C
  Mean Stool Weight: increase
Healthy subjects; seven daily oral doses 30-1000 μg, higher doses, FIG. 15b
  Mean Stool Frequency (stools per week): increase
Female CD rats [3]
  Charcoal transit, of the small intestine (mean+SEM): 37.3+3.0%
Female CD rats [4]
  cGMP levels in ligated loop: increases
  secretion in ligated loop: increases
